Measured values from article PMC5719431, “Structural insights into the potency of SK channel positive modulators” (Scientific Reports, 2017).

Columns and labels:
[1] = molecular target: T1, SK2-a channel (SK2, KCa2.2) co-expressed with CaM (Rattus norvegicus, UniProt P0DP29+P70604); assay: inside-out patch clamp, potentiation of SK2 current; format: cell-based
T1 construct: gene Kcnn2; full-length SK2-a co-transfected with CaM and GFP in TsA201 cells; tetrameric channel

[2] = molecular target: T2, CaM/CaMBD complex (CaM and SK2 channel fragment R395–Q486) (Rattus norvegicus, UniProt P0DP29+P70604); assay: X-ray crystal structure (soaked crystals); format: binding; conditions: Ca2+-CaM, site at interface of CaMBD and CaM N-lobe
T2 construct: gene Kcnn2; both expressed in E. coli Rosetta-2
T2 sequence (P70604 396-487, one chain of several): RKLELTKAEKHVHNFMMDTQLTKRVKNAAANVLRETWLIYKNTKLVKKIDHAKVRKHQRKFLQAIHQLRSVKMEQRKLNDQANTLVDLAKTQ

T1 sequence (P70604 whole entry, one chain of several): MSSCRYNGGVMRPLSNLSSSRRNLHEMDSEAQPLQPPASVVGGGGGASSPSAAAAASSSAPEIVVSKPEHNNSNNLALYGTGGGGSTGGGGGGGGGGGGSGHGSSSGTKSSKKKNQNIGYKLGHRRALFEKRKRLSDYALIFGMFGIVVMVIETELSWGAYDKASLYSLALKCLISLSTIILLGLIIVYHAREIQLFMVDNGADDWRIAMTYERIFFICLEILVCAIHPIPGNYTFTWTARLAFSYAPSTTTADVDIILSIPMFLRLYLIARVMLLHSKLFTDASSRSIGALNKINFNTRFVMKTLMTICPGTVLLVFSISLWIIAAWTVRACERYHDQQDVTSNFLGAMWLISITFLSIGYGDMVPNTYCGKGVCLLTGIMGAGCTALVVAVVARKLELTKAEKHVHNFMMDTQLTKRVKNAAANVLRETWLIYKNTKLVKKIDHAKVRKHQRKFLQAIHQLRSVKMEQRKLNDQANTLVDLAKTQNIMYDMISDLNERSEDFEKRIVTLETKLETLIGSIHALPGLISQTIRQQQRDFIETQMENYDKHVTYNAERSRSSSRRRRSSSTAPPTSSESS

Row | Structure (SMILES) | EC50 [1] [µM] | X-ray crystal structure (soaked crystals) ([2]; soaked about 1 month) | X-ray crystal structure (soaked crystals) ([2]; soaked about 5 months)
1 | O=C1Nc2c(ccc(Cl)c2Cl)C1=NO [NS309] | 0.552 ± 0.083 | – | –
2 | Cc1cc2c(cc1Br)NC(=O)C2=NO [SKS-11, 6-bromo-5-methyl-1H-indole-2,3-dione-3-oxime] | 3.87 ± 0.88 | crystal structures of SKS-11 and SKS-14 in complex with their binding pocket | –
3 | O=C1Nc2c(F)cccc2C1=NO [SKS-14, 7-fluoro-3-(hydroxyimino)indolin-2-one] | 33.2 ± 4.8 | – | crystal structures of SKS-11 and SKS-14 in complex with their binding pocket
